The record followed here is patent US10308644B2, “Heterocyclic compounds as immunomodulators” (Incyte Corporation, priority 2016, dated 2019).

A value given as a limit tells only on which side of the number the result lay.

This test concerns the target PD-1/PD-L1 (Homo sapiens (Human), UniProt Q9NZQ7). The experiment in a line: PD-1/PD-L1 Homogeneous Time-Resolved Fluorescence (HTRF) Binding Assay. The note with it: recombinant human PD-1 (3 nM) and PD-L1 (10 nM), 25° C., PBS pH 7.4. The method, boiled down:
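Fc-tagged human PD-1 (25-167, 3 nM) and His-tagged PD-L1 (19-238, 10 nM) preincubated with inhibitor 40 min in PBS pH 7.4, 0.05% Tween-20, 0.1% BSA, 1% DMSO, 25 °C. Binding detected by HTRF (Eu anti-IgG/APC anti-His, 665/620 nm) after 60 min; IC50 from percent control activity.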

Sequence of PD-1/PD-L1 (Q9NZQ7 19-238): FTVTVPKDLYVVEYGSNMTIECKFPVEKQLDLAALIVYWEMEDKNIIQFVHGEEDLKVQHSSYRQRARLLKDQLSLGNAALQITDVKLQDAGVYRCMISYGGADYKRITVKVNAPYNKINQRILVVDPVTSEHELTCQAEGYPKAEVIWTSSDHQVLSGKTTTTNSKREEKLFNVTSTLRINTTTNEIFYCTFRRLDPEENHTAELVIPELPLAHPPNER

With `Cc1c(-c2nc3cc(CN4CC[C@@H](O)C4)cc(C#N)c3o2)cccc1-c1cccc(NC(=O)c2nc3c(n2C)CCN(CCC2CCC(C(=O)O)CC2)C3)c1Cl` (stereo partly drawn) [Example 265, (R)-4-(2-(2-(2-chloro-3′-(7-cyano-5-((3-hydroxypyrrolidin-1-yl)methyl)benzo[d]oxazol-2-yl)-2′-methylbiphenyl-3-ylcarbamoyl)-1-methyl-6,7-dihydro-1H-imidazo[4,5-c]pyridin-5(4H)-yl)ethyl)cyclohexane carboxylic acid], the IC50 is ≤ 10 nM.

In the case of `Cc1c(-c2nc3cc(CN4CC[C@@H](O)C4)cc(C#N)c3o2)cccc1-c1cccc(NC(=O)c2nc3c(n2C)CCN(C[C@H]2CC[C@@H](C(=O)O)CC2)C3)c1Cl` [Example 266, cis-4-((2-(2-chloro-3′-(7-cyano-5-(((R)-3-hydroxypyrrolidin-1-yl)methyl)benzo[d]oxazol-2-yl)-2′-methylbiphenyl-3-ylcarbamoyl)-1-methyl-6,7-dihydro-1H-imidazo[4,5-c]pyridin-5(4H)-yl)methyl)cyclohexane carboxylic acid], the IC50 is ≤ 10 nM.

Turning to `Cc1c(-c2nc3cc(CN4CC[C@@H](O)C4)cc(C#N)c3o2)cccc1-c1cccc(NC(=O)c2nc3c(n2C)CCN(CC24CCC(C(=O)O)(CC2)C4)C3)c1Cl` [Example 267, (R)-4-((2-(2-chloro-3′-(7-cyano-5-((3-hydroxypyrrolidin-1-yl)methyl)benzo[d]oxazol-2-yl)-2′-methylbiphenyl-3-ylcarbamoyl)-1-methyl-6,7-dihydro-1H-imidazo[4,5-c]pyridin-5(4H)-yl)methyl)bicyclo[2.2.1]heptane-1-carboxylic acid], the IC50 was ≤ 10 nM.

In the case of `Cc1c(-c2nc3cc(CN4CC5CC4CC5O)cc(C#N)c3o2)cccc1-c1cccc(NC(=O)c2nc3c(n2C)CCN(CC2CCC(C(=O)O)CC2)C3)c1Cl` (stereo not drawn) [Example 270, trans-4-((2-(2-chloro-3′-(7-cyano-5-((5-hydroxy-2-azabicyclo[2.2.1]heptan-2-yl)methyl)benzo[d]oxazol-2-yl)-2′-methylbiphenyl-3-ylcarbamoyl)-1-methyl-6,7-dihydro-1H-imidazo[4,5-c]pyridin-5(4H)-yl)methyl)cyclohexanecarboxylic acid], the IC50 was ≤ 10 nM.

As to `Cc1c(-c2nc3cc(CN4CCCC4)cc(C#N)c3o2)cccc1-c1cccc(NC(=O)c2nc3c(n2C)CCN(C[C@H]2CC[C@H](C(=O)O)CC2)C3)c1Cl` [Example 271, trans-4-((2-(2-chloro-3′-(7-cyano-5-(pyrrolidin-1-ylmethyl)benzo[d]oxazol-2-yl)-2′-methylbiphenyl-3-ylcarbamoyl)-1-methyl-6,7-dihydro-1H-imidazo[4,5-c]pyridin-5(4H)-yl)methyl)cyclohexanecarboxylic acid], the IC50 was ≤ 10 nM.
